{"source": "patent US4697012A", "about": "“Morpholino pyridyl thiazole compound” (Merck & Co., Inc., priority 1984, dated 1987)", "system": "footpad swelling (SRBC challenge)", "assay": "Delayed Hypersensitivity Assay (SRBC-sensitized mice, footpad swelling)", "type": "in vivo, female BALB/C mice", "settings": "Mus musculus, one hour prior to challenge, 24 hrs post challenge, read-out: Inhibition % (percent inhibition of footpad swelling); for inhibition in vivo at 0.1 mg/kg: dosage 0.1 mg/kg p.o.; for inhibition in vivo at 1 mg/kg: dosage 1.0 mg/kg p.o.; for inhibition in vivo at 10 mg/kg: dosage 10.0 mg/kg p.o.; for inhibition in vivo at 10000 µg/mL / inhibition in vivo at 10 µg/mL / inhibition in vivo at 100 µg/mL / inhibition in vivo at 100000 µg/mL: Table II; for inhibition in vivo at 10000 µg/mL: dosage 10.0 (mg/ml as printed) p.o.; for inhibition in vivo at 10 µg/mL: dosage 0.01 (mg/ml as printed) p.o.; for inhibition in vivo at 100 µg/mL: dosage 0.1 (mg/ml as printed) p.o.; for inhibition in vivo at 100000 µg/mL: dosage 100.0 (mg/ml as printed) p.o.; for inhibition in vivo at 0.01 mg/kg: dosage 0.01 mg/kg p.o.; for inhibition in vivo at 100 mg/kg: dosage 100.0 mg/kg p.o.", "protocol": "Animals (female BALB/C mice) are sensitized with 5×10^5 SRBC(sheep red blood cells)/0.5 ml by intravenous (tail vein) injection. One hour prior to challenge, animals are dosed with the drugs in question, p.o. On day four the animals are challenged with 5×10^8 SRBC/0.05 ml in the hind foot pad. Footpad volume is measured by a mercury displacement apparatus before challenge and 24 hrs post challenge. Percent inhibition of footpad swelling is calculated by comparing the increase in footpad volume of test group to the control group.", "note": "Structures can show the parent of a compound that is named as a salt.", "data": [{"compound": "OCC(c1ccccc1)c1nc(-c2ccncc2)cs1", "note": "(stereo not drawn) [CH2 OH, 2-Phenyl-2-[4-(4-pyridyl)-2-thiazolyl] ethanol]", "values": [{"measurement": "inhibition in vivo at 0.1 mg/kg", "setting": "po, Table I", "value": 51, "unit": "%"}, {"measurement": "inhibition in vivo at 1 mg/kg", "setting": "po, Table I", "value": 65, "unit": "%"}, {"measurement": "inhibition in vivo at 10 mg/kg", "setting": "po, Table I", "value": 27, "unit": "%"}]}, {"compound": "O=CC(c1ccccc1)c1nc(-c2ccncc2)cs1", "note": "(stereo not drawn) [CHO]", "values": [{"measurement": "inhibition in vivo at 10 mg/kg", "setting": "po, Table I", "value": 63, "unit": "%"}]}, {"compound": "N#CC(c1ccccc1)c1nc(-c2ccncc2)cs1", "note": "(stereo not drawn) [CN, 2-Phenyl-2-[4-(4-pyridyl)-2-thiazolyl]acetonitrile]", "values": [{"measurement": "inhibition in vivo at 0.1 mg/kg", "setting": "po, Table I", "value": 58, "unit": "%"}, {"measurement": "inhibition in vivo at 1 mg/kg", "setting": "po, Table I", "value": 46, "unit": "%"}]}, {"compound": "N#Cc1cc(-c2csc(Cc3ccccc3)n2)ccn1", "note": "[Example 2-CN]", "values": [{"measurement": "inhibition in vivo at 10000 µg/mL", "value": 36.6, "unit": "%"}]}, {"compound": "Clc1cc(-c2csc(Cc3ccccc3)n2)ccn1", "note": "[Example 2-Cl, 2-Benzyl-4-(2-chloro-4-pyridyl)thiazole]", "values": [{"measurement": "inhibition in vivo at 10 µg/mL", "value": 52.6, "unit": "%"}, {"measurement": "inhibition in vivo at 100 µg/mL", "value": 64.7, "unit": "%"}, {"measurement": "inhibition in vivo at 10000 µg/mL", "value": 77.6, "unit": "%"}, {"measurement": "inhibition in vivo at 100000 µg/mL", "value": 80.1, "unit": "%"}]}, {"compound": "c1ccc(Cc2nc(-c3ccnc(N4CCOCC4)c3)cs2)cc1", "note": "[Example 2-morpholino]", "values": [{"measurement": "inhibition in vivo at 10 µg/mL", "value": 26.1, "unit": "%"}, {"measurement": "inhibition in vivo at 100 µg/mL", "value": 33.8, "unit": "%"}, {"measurement": "inhibition in vivo at 10000 µg/mL", "value": 44.3, "unit": "%"}, {"measurement": "inhibition in vivo at 100000 µg/mL", "value": 45.1, "unit": "%"}]}, {"compound": "FC(F)(c1ccccc1)c1nc(-c2ccncc2)cs1", "note": "[F,F, 1,1-Difluoro-1-phenyl-1-[4-(4-pyridyl)-2-thiazolyl]-methane]", "values": [{"measurement": "inhibition in vivo at 1 mg/kg", "setting": "po, Table I", "value": 49, "unit": "%"}, {"measurement": "inhibition in vivo at 10 mg/kg", "setting": "po, Table I", "value": 63, "unit": "%"}]}, {"compound": "c1ccc(Cc2nc(-c3ccncc3)cs2)cc1", "note": "[H, 2-Benzyl-4-(4-pyridyl)thiazole]", "values": [{"measurement": "inhibition in vivo at 0.01 mg/kg", "setting": "po, Table I", "value": 21.8, "unit": "%"}, {"measurement": "inhibition in vivo at 0.1 mg/kg", "setting": "po, Table I", "value": 70.2, "unit": "%"}, {"measurement": "inhibition in vivo at 30 mg/kg", "setting": "po, Table I, dosage 30 mg/kg p.o.", "value": 75.2, "unit": "%"}]}, {"compound": "[O-][n+]1ccc(-c2csc(Cc3ccccc3)n2)cc1", "note": "[Noxide, 4-[2-(Phenylmethyl)-4-thiazolyl]pyridine-1-oxide]", "values": [{"measurement": "inhibition in vivo at 10 µg/mL", "value": 46, "unit": "%"}, {"measurement": "inhibition in vivo at 100 µg/mL", "value": 55.6, "unit": "%"}, {"measurement": "inhibition in vivo at 10000 µg/mL", "value": 71.8, "unit": "%"}, {"measurement": "inhibition in vivo at 100000 µg/mL", "value": 93.4, "unit": "%"}]}, {"compound": "OC(c1ccccc1)c1nc(-c2ccncc2)cs1", "note": "(stereo not drawn) [OH, 1-Phenyl-1-[4-(4-pyridyl)-2-thiazolyl]methanol]", "values": [{"measurement": "inhibition in vivo at 0.1 mg/kg", "setting": "po, Table I", "value": 32, "unit": "%"}, {"measurement": "inhibition in vivo at 1 mg/kg", "setting": "po, Table I", "value": 31, "unit": "%"}, {"measurement": "inhibition in vivo at 10 mg/kg", "setting": "po, Table I", "value": 55, "unit": "%"}]}, {"compound": "Fc1ccc(Cc2nc(-c3ccncc3)cs2)cc1", "note": "[PF, 2-(p-fluoro-benzyl)-4-(4-pyridyl)thiazole]", "values": [{"measurement": "inhibition in vivo at 0.1 mg/kg", "setting": "po, Table I", "value": 11.7, "unit": "%"}, {"measurement": "inhibition in vivo at 1 mg/kg", "setting": "po, Table I", "value": 60.8, "unit": "%"}, {"measurement": "inhibition in vivo at 10 mg/kg", "setting": "po, Table I", "value": 40.9, "unit": "%"}]}, {"compound": "Cc1cccc(Cc2nc(-c3ccncc3)cs2)c1", "note": "[m-CH3, 2-(m-methyl-benzyl)-4-(4-pyridyl)thiazole dihydrochloride]", "values": [{"measurement": "inhibition in vivo at 0.1 mg/kg", "setting": "po, Table I", "value": 49.1, "unit": "%"}, {"measurement": "inhibition in vivo at 10 mg/kg", "setting": "po, Table I", "value": 64.8, "unit": "%"}, {"measurement": "inhibition in vivo at 100 mg/kg", "setting": "po, Table I", "value": 71.2, "unit": "%"}]}, {"compound": "Nc1ccccc1Cc1nc(-c2ccncc2)cs1", "note": "[o-NH2, 2-(o-Aminobenzyl)-4-(4-pyridyl)thiazole]", "values": [{"measurement": "inhibition in vivo at 0.01 mg/kg", "setting": "po, Table I", "value": 82.2, "unit": "%"}, {"measurement": "inhibition in vivo at 0.1 mg/kg", "setting": "po, Table I", "value": 93.6, "unit": "%"}, {"measurement": "inhibition in vivo at 10 mg/kg", "setting": "po, Table I", "value": 52.8, "unit": "%"}]}, {"compound": "CC(=O)Nc1ccccc1Cc1nc(-c2ccncc2)cs1", "note": "[o-NHCOCH3, 2-(o-acetamidobenzyl)-4-(4-pyridyl)thiazole]", "values": [{"measurement": "inhibition in vivo at 0.1 mg/kg", "setting": "po, Table I", "value": 32.6, "unit": "%"}, {"measurement": "inhibition in vivo at 10 mg/kg", "setting": "po, Table I", "value": 52.8, "unit": "%"}, {"measurement": "inhibition in vivo at 100 mg/kg", "setting": "po, Table I", "value": 75.5, "unit": "%"}]}, {"compound": "NC(=O)Nc1ccccc1Cc1nc(-c2ccncc2)cs1", "note": "[o-NHCONH2]", "values": [{"measurement": "inhibition in vivo at 0.01 mg/kg", "setting": "po, Table I", "value": 40.4, "unit": "%"}, {"measurement": "inhibition in vivo at 10 mg/kg", "setting": "po, Table I", "value": 31.4, "unit": "%"}]}, {"compound": "Oc1ccccc1Cc1nc(-c2ccncc2)cs1", "note": "[o-OH]", "values": [{"measurement": "inhibition in vivo at 0.01 mg/kg", "setting": "po, Table I", "value": 15.1, "unit": "%"}, {"measurement": "inhibition in vivo at 0.1 mg/kg", "setting": "po, Table I", "value": 16.4, "unit": "%"}]}, {"compound": "c1ccc(-c2ccc(Cc3nc(-c4ccncc4)cs3)cc2)cc1", "note": "[p-C6 H5]", "values": [{"measurement": "inhibition in vivo at 10 mg/kg", "setting": "po, Table I", "value": 36.4, "unit": "%"}]}, {"compound": "O=[N+]([O-])c1ccc(Cc2nc(-c3ccncc3)cs2)cc1", "note": "[p-NO2, 2-(p-Nitrobenzyl)-4-(4-pyridyl)thiazole]", "values": [{"measurement": "inhibition in vivo at 0.01 mg/kg", "setting": "po, Table I", "value": 32.4, "unit": "%"}, {"measurement": "inhibition in vivo at 0.1 mg/kg", "setting": "po, Table I", "value": 40.6, "unit": "%"}, {"measurement": "inhibition in vivo at 10 mg/kg", "setting": "po, Table I", "value": 65.2, "unit": "%"}, {"measurement": "inhibition in vivo at 100 mg/kg", "setting": "po, Table I", "value": 82.2, "unit": "%"}]}]}
